Test results reported in patent US7083940B2, “Pregnancy-associated plasma protein-A2 (PAPP-A2)” (Como Biotech ApS, priority 2000, dated 2006).

Tested on: rIGFBP-5
Test: Ligand blotting with radiolabeled IGF-II, activity of PAPP-A2 against IGFBP-5
Format: biochemical
Conditions: medium from cells transfected with pPA2
Method: Medium from 293T cells transfected with empty vector (−), or cDNA encoding PAPP-A2 (pPA2) (+) was incubated with each of the six IGFBPs (BP1–BP6), and the activity was assessed by ligand blotting using radiolabeled IGF-II.
Ligand blotting (Conover et al., 1993, J Clin Invest 91, 1129–37) with radiolabeled IGF-II (Bachem) was used to assay for activity against IGFBP-1 (from HepG2 conditioned medium), rIGFBP-2 (GroPep), rIGFBP-3 (gift of D. Powell), rIGFBP-4 (Austral), rIGFBP-5 (gift of D. Andress), and rIGFBP-6 (Austral). […] Experiments were carried out with media from cells transfected with pPA2 or empty vector.

PAPP-A2: recombinant pregnancy-associated plasma protein-A2, SEQ ID NO:2, metzincin metalloproteinase expressed in 293T cells
Dependence of cleavage on IGF: independent of the presence of IGF
